The text below walks through data of patent US10570150B2, “6,7-trans cephalosporin-based probes for detecting bacteria expressing a metallo-beta-lactamase” (priority 2014, dated 2020).

The term Km denotes the substrate concentration at which the rate is half of its maximum. As a reminder, the kcat is the maximal rate divided by the concentration of active sites.

The target in one data set is BlaC (Mycobacterium tuberculosis, UniProt P9WKD3). In words: Fluorescence of probes after incubation with recombinant BlaC. It is filed as biochemical. The following applies: BlaC 1 to 200 fmols; probe 10 μM, 25 μL 1×PBS pH 7.4, room temperature, 2 h. Here is the method: (§1) The fluorescence of the probes was measured before and after enzyme treatment using enzyme concentrations in the range of about 1 to about 200 fmols. […] CDC-1, a previously reported non-specific probe for β-lactamases employed as a positive control, as described by Xie et al., (2012) J. Nat.
Chain of BlaC (P9WKD3 41-307 limits assumed): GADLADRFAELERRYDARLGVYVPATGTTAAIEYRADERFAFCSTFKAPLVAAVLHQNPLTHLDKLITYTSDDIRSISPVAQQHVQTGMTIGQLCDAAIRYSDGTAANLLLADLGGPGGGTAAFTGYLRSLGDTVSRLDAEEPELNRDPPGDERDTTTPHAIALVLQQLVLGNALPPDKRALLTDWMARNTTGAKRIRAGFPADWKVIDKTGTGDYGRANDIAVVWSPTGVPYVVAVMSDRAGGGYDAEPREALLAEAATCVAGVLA

In data set [1] the target is T1, KPC-3 (Klebsiella pneumoniae, UniProt Q9F663, H272Y). It is filed as biochemical. The following applies: KPC-3 1 to 200 fmols; probe 10 μM, 25 μL 1×PBS pH 7.4, room temperature, 2 h.
T1 sequence (Q9F663 25-293 H272Y): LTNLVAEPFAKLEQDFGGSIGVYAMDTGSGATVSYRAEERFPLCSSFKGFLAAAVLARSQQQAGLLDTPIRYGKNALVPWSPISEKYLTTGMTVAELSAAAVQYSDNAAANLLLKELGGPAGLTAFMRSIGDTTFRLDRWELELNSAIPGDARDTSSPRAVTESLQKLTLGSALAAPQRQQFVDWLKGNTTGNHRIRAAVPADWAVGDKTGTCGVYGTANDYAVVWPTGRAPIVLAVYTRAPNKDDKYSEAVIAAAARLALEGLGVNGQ
Data set [2] in a line: Spontaneous hydrolysis of probe in PBS buffer. It is filed as physicochemical. The following applies: [S]0=20 μM. The text has this: FIGS. 14A-14G illustrate the spontaneous hydrolysis in buffer of a probe according to the disclosure. FIG. 14A is a schema illustrating the spontaneous hydrolysis of a probe of the disclosure in PBS buffer to release umbelliferone and thereby generate a fluorescent signal. […] Initial concentration of probe, [P]: […] Error bars indicate the standard deviations of three replicate experiments.

Data set [3] has as its system VIM-27. In words: Fluorescence of probes after incubation with recombinant VIM-27. It is filed as biochemical, Klebsiella pneumoniae. To be noted: VIM-27 1 to 200 fmols; probe 10 μM, 25 μL 1×PBS pH 7.4, room temperature, 2 h. On the procedure:
as §1

Data set [4] has as its target T2, NDM-1 (Klebsiella pneumoniae, UniProt C7C422). It is filed as biochemical, Escherichia coli. To be noted: probe 10 μM, 2 h; for fluorescence enhancement: NDM-1 1 to 200 fmols, 25 μL 1×PBS pH 7.4, room temperature.
Data set [5] has as its target T1, KPC-3. The following applies: from Lineweaver-Burk plots.
Description: (§2) The kinetic parameters of the probes of the disclosure with different 3-lactamases were determined from Lineweaver-Burk plots and summarized in FIGS. 7A-13F and Table 1.
(§3) Kinetic experiments were conducted in a M1000 microplate reader (TECAN, research triangle park, NC).
Data set [6] deals with VIM-27. As to the kind of experiment: Kinetic parameters of probes with recombinant VIM-27 (Lineweaver-Burk plots). The following applies: from Lineweaver-Burk plots.
Description: as §2, §3
Data set [7] addresses T3, IMP-1 (Serratia marcescens, UniProt P52699). It is filed as biochemical, Escherichia coli. The following applies: IMP-1 1 to 200 fmols; probe 10 μM, 25 μL 1×PBS pH 7.4, room temperature, 2 h.
For a further data set, the target named is TEM-1 Bla (Escherichia coli, UniProt P62593). Format: biochemical. To be noted: TEM-1 Bla 1 to 200 fmols; probe 10 μM, 25 μL 1×PBS pH 7.4, room temperature, 2 h.
Chain of TEM-1 Bla (P62593 24-286 limits assumed): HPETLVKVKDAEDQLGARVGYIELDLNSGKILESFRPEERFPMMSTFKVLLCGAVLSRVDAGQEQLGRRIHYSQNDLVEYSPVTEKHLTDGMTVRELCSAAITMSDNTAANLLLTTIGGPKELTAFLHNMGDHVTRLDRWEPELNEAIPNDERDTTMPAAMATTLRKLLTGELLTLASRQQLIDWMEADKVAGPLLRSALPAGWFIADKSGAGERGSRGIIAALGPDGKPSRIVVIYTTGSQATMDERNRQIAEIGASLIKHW
Another data set relates to E. coli with IMP-1. To be noted: IMP-1-expressing bacteria; 2 h incubation.
The subject of data set [8] is non-carbapenemase lactamases. As to the kind of experiment: Hydrolysis of probes by non-carbapenemase lactamases.
Excerpt: The specificities of the fluorescent probe embodiments of the disclosure to selectively detect carbapenemases as opposed to other lactamases were examined using recombinant β-lactamases. […] Two non-carbapenemase class A β-lactamases, TEM-1 Bla and BlaC, were also expressed for use as negative controls.
In data set [9] the target is T2, NDM-1. The following applies: from Lineweaver-Burk plots.
Description: as §2, §3
In data set [10] the target is T3, IMP-1. The following applies: from Lineweaver-Burk plots.
Description: as §2, §3

Molecules are shown by their SMILES. Marks after values point to notes of the source that are not given here. Some results are limits rather than exact numbers.

T3 sequence (P52699 19-246 limits assumed): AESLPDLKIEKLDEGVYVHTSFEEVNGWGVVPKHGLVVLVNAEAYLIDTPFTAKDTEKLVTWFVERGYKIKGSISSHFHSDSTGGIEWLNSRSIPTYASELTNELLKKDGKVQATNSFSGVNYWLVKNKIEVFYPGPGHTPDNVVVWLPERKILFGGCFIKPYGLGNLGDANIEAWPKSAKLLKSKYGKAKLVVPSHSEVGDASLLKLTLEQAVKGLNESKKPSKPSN
T2 sequence (C7C422 29-270 limits assumed): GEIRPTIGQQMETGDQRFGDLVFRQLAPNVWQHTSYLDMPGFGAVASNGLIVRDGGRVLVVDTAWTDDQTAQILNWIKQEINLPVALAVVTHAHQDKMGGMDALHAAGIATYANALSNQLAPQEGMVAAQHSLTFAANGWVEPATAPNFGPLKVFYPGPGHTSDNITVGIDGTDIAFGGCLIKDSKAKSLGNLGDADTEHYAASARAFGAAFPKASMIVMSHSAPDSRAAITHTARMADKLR
Excerpt for E. coli with IMP-1: From left to right in each figure: E. coli with IMP-1 (IMP1-E. coli), K. pneumoniae with VIM-27 (VIM27-Kp), E. coli with NDM-1 (NDM1-E. coli), K. pneumoniae with KPC-3 (KPC3-Kp), K. pneumoniae with CTX-M (CTX-Kp), K. pneumoniae with SHV-18 (SHV18-Kp), E. coli with TEM-1 Bla (TEM1-E. coli), E. coli with AmpC (AmpC-E. coli), E. coli transformed with BlaC (BlaC-E. coli), K. pneumoniae with OXA-48 (OXA48-Kp), E. coli with IMI (IMI-E. coli). All bacteria numbers are as indicated except for E. coli expressing AmpC where 10^7 c.f.u. were used instead. Relative fluorescence represents the difference in fluorescence intensity with and without β-lactamase incubation. Fluorescence was measured with excitation at 363 nm and emission at 454 nm (band width=5/7.5 nm). Error bars are ±SD.
Eleven bacteria strains that produced carbapenemases or other clinically prevalent β-lactamases were evaluated, including the class A β-lactamases KPC-3 and IMI, class B MBLs VIM-27, IMP-1, and NDM-1, the class D β-lactamase OXA-48, and the clinically important non-carbapenamases CTX-M, SHV-18, TEM-1, BlaC, and AmpC.

For the molecule `CO[C@H]1C(=O)N2C(C(=O)O)=C(COc3ccc4ccc(=O)oc4c3)CS[C@H]12` [(s)-CC-1, (6R,7S)-7-methoxy-8-oxo-3-(((2-oxo-2H-chromen-7-yl)oxy)methyl)-5-thia-1-azabicyclo[4.2.0.]oct-2-ene-2-carboxylic Acid], the fluorescence enhancement entry on BlaC was “almost no fluorescence enhancement”; at KPC-3 [1], “high fluorescence signals”; with VIM-27 [3] it was “high fluorescence signals”; on NDM-1 [4], “high fluorescence signals”; on IMP-1 [7] it was “high fluorescence signals”; on TEM-1 Bla it was “almost no fluorescence enhancement”. For the same molecule, the Spontaneous hydrolysis rate in data set [2] is 7e-08 s⁻¹. Besides, the Km stood at 67.7 ± 4.9 µM at KPC-3 [5] and 29.2 ± 7 µM with VIM-27 [6]. Moreover, the kcat was found to be 1.5 ± 0.05 s⁻¹ at KPC-3 [5] and 1.1 ± 0.1 s⁻¹ in the data set on VIM-27 [6]. Besides, the “number of bacteria detected / detection limit” value in the data set on E. coli with IMP-1 is ≤ 10^4 c.f.u.
In the case of `CCO[C@H]1C(=O)N2C(C(=O)O)=C(COc3ccc4ccc(=O)oc4c3)CS[C@H]12` [(s)-CC-2, (6R,7S)-7-ethoxy-8-oxo-3-(((2-oxo-2H-chromen-7-yl)oxy)methyl)-5-thia-1-azabicyclo[4.2.0]oct-2-ene-2-carboxylic Acid], the fluorescence enhancement result is “almost no fluorescence enhancement” at BlaC; “high fluorescence signals” at KPC-3 [1]; “high fluorescence signals” in the data set on VIM-27 [3]; “high fluorescence signals” at NDM-1 [4]; “high fluorescence signals” at IMP-1 [7]; “almost no fluorescence enhancement” on TEM-1 Bla. Besides, the Spontaneous hydrolysis rate in data set [2] was 5.9e-07 s⁻¹. Besides, the Km on KPC-3 [5] stood at 39.1 ± 1.3 µM; in the data set on VIM-27 [6], 23 µM. The kcat came out at 0.3 ± 0.05 s⁻¹ at KPC-3 [5] and 0.71 ± 0.0 s⁻¹ in the data set with VIM-27 [6].
Turning to `CC(C)(C)O[C@H]1C(=O)N2C(C(=O)O)=C(COc3ccc4ccc(=O)oc4c3)CS[C@H]12` [(s)-CC-4, (6R,7S)-7-(tert-butoxy)-8-oxo-3-(((2-oxo-2H-chromen-7-yl)oxy)methyl)-5-thia-1-azabicyclo[4.2.0]oct-2-ene-2-carboxylic Acid], in [2], the Spontaneous hydrolysis rate was found to be 5.4e-07 s⁻¹. For the same molecule, the “amount of enzyme giving detectable fluorescence” value at NDM-1 [4] (NDM-1) is recorded as “about 200 fmol”. Further, at KPC-3 [5], the Km turned out to be 121 ± 85 µM and the turnover number (kcat) was determined as 0.2 ± 0.1 s⁻¹. Further, in the data set with VIM-27 [6], the Michaelis-Menten constant (Km) was found to be 91.6 ± 10.1 µM and the kcat was found to be 0.2 ± 0.01 s⁻¹. For the same molecule, on IMP-1 [7], the fluorescence enhancement result is given as “high specificity for IMP-1”. Besides, the “number of bacteria detected / detection limit” value in the data set on E. coli with IMP-1 is reported as “about 1×10^5 c.f.u”. For the same molecule, in data set [8], the “hydrolysis by non-carbapenemase lactamases” value is reported as “No hydrolysis”.
As to `O=C(O)C1=C(COc2ccc3ccc(=O)oc3c2)CS[C@@H]2[C@@H](OCc3ccccc3)C(=O)N12` [(s)-CC-5, (6R,7S)-7-(benzyloxy)-8-oxo-3-(((2-oxo-2H-chromen-7-yl)oxy)methyl)-5-thia-1-azabicyclo[4.2.0]oct-2-ene-2-carboxylic Acid], the fluorescence enhancement entry is “almost no fluorescence enhancement” at BlaC; “high fluorescence signals” at KPC-3 [1]; “high fluorescence signals” with VIM-27 [3]; “high fluorescence signals” at NDM-1 [4]; “high fluorescence signals” on IMP-1 [7]; “almost no fluorescence enhancement” on TEM-1 Bla. This molecule registered a Spontaneous hydrolysis rate in data set [2] of 2.7e-07 s⁻¹. Besides, the Km on KPC-3 [5] was found to be 5.2 ± 0.5 µM; with VIM-27 [6], 145 ± 100 µM. In addition, the figures for the kcat at KPC-3 [5] and with VIM-27 [6] were 1.1 ± 0.01 s⁻¹ and 3.4 ± 1.5 s⁻¹, respectively. The “hydrolysis by non-carbapenemase lactamases” value in [8] was “no hydrolysis”.
Take `O=C(Cc1ccccc1)N[C@@H]1C(=O)N2C(C(=O)O)=C(COc3ccc4ccc(=O)oc4c3)CS[C@H]12` [CDC-1, reference compound]: the fluorescence enhancement result at BlaC, at KPC-3 [1], with VIM-27 [3], at NDM-1 [4], on IMP-1 [7] and on TEM-1 Bla was “positive fluorescence enhancement” in each case. The Michaelis constant (Km) is 5.04 ± 3.2 µM on NDM-1 [9], 4 ± 0.1 µM on IMP-1 [10], 21 ± 1.34 µM at KPC-3 [5] and 3.8 ± 2.7 µM in the data set with VIM-27 [6]. For the same molecule, the kcat on NDM-1 [9] was determined as 4.6 ± 0.3 s⁻¹; at IMP-1 [10], 7.9 ± 0.1 s⁻¹; at KPC-3 [5], 35.4 ± 0.04 s⁻¹; in the data set with VIM-27 [6] it was 2.3 ± 0.3 s⁻¹. Further, the Spontaneous hydrolysis rate in data set [2] was 2.4^b ×10^−7s^−1.
